Data from patent publication US12410472B2, “Method for evaluating the eye irritation potential of chemicals” (IMMUNOSEARCH, priority 2016, dated 2025).
Counter-ions that a name gives are not always drawn. Like-named read-outs stand apart in the source and are kept apart here.

Key:
[1] = test system: reconstructed human corneal epithelium model (SkinEthic™ HCE)
From the text: The reconstructed human corneal epithelium model, (SkinEthic™ HCE) was purchased from Episkin in Lyon. The model consists of immortalized human corneal epithelial cells grown in a defined medium at the air-liquid interface. The tissue structure obtained is a multi-layer epithelium similar to the natural tissue structure of the human cornea, comprising 5-7 layers with a surface area of 0.5 cm^2.
Polyhedral cells and wing cells are also present. The tissue also comprises specific ultrastructures such as intermediate filaments, mature hemidesmosomes and desmosomes. […] The tissues are shipped on a semi-solid layer of agarose culture medium. Upon receipt, the tissues are transferred to maintenance medium (1 ml/well) in 6-well plates and incubated in a climatic chamber at 37° C., 5% CO2. The tissues are used 24 hours later.
The procedure for applying solid (powdered) products to the tissues was optimized as follows. First, the products are reduced to the finest possible powder with a mortar. The chemicals are tested at a single dose. In summary, the tissue surface is moistened by adding 20 μl of PBS at 37° C. and incubation for 10 min at 37° C./5% CO2. The corneal epithelia are then treated topically with 30±2 mg (representing 60 mg/cm2) and incubated for 30 min at room temperature. The tissues are then washed with sterile PBS (2×25 ml) at 37° C. PBS is applied to the edge of the insert (not directly on the tissue) to create a gentle vortex that removes the chemical. The tissues on their inserts are then “embedded” in 5 ml of maintenance medium at room temperature for 30 minutes in order to remove as much as possible of the product remaining on the tissue surface. The medium is then removed by gently tapping the insert on absorbent paper, and 50 μl of maintenance medium at 37° C. is added. The inserts are then incubated for 6 h at 37° C./5% CO2.
In summary, corneal tissues are recovered with forceps and placed in tubes for rapid freezing in liquid nitrogen. The RNA is then extracted by the QIAzol technique (Qiagen, Courtaboeuf, France) with an “RNeasy Mini Kit” according to the manufacturer's instructions. In summary, the tissues are placed in 1 ml of QIAzol and homogenized using the TissueLyser II (Qiagen, Courtaboeuf, France) with 2 steel beads. After centrifugation, the supernatant is collected and 0.2 ml of bromochloro propane (Sigma, France) is added, then the whole is vigorously mixed. The homogenate is centrifuged at 12,000 g for 15 min at 4° C. The upper phase (aqueous phase) is added to 600 μl of 70% ethanol and immediately mixed by pipetting. The mixture is transferred to an RNeasy spin column placed on a 2 ml collection tube and the RNA is collected according to the manufacturer's instructions (Qiagen, Courtaboeuf, France).
In summary, the transcription of total RNA is performed with 1 μg of total RNA in a final volume of 20 μl using “Random Primers” (Invitrogen, France) and “SuperScript III Reverse Transcriptase” (Invitrogen, France) according to the manufacturer's instructions. Quantitative RT-PCR uses a PCR reagent mix: SYBR Green Real-Time PCR Master Mix (ROCHE, France) with 0.4 μM of each nucleotide primer in a final volume of 25 μl. The reaction is performed in an LC480 System (ROCHE, France). The amplification program comprises a cycle at 95° C. for 1 min, followed by 40 cycles with denaturation at 95° C. for 15 s, a hybridization and amplification phase at 60° C. for 15 s, followed by a final elongation phase at 72° C. for 40 s.
The relative amount of each transcript is normalized to the average amount of expression of 5 so-called housekeeping genes (Glucuronidase β-GUSB, vacuolar ATPase-ATP6V0E1, H2A Histone Family, Member Y-H2AFY, Glucose-6-Phosphate Dehydrogenase-G6PD and “non-POU domain-containing, octamer-binding”-NONO).
The gene expression rate is measured by an absolute quantification analysis method using an algorithm based on the maximum of the second derivative developed by Roche.

[2] = test system: eye; conditions: cited from earlier work
[3] = classification from the Solid Irritation Index
[4] = solid product applied pure in powder form, 30±2 mg, first of three index values
[5] = solid product applied pure in powder form, 30±2 mg, second of three index values
[6] = solid product applied pure in powder form, 30±2 mg, third of three index values
[7] = Table 6, list of solid chemicals studied
[8] = control chemicals and chemicals of FIG. 1 and FIG. 2

| SMILES | EIT prediction [1, 3] | Irritation INDEX [1, 4] | Irritation INDEX [1, 5] | Irritation INDEX [1, 6] | UN-GHS ([2]; Draize test classification) | GHS Class [2, 7] | eye irritation category as stated in text and figure legends [2, 8] | EIT prediction [1] | other results |
| --- | --- | --- | --- | --- | --- | --- | --- | --- | --- |
| CC(C)(O)CCC(C)(C)O | Cat 1 | 22 | 23 | 21 | Cat 1 | Cat 1 | category 1 | – | – |
| O=C(Nc1ccc(Cl)cc1)Nc1ccc(Cl)c(Cl)c1 [1-(4-Chlorophenyl)-3-(3,4-dichlorophenyl) urea] | No Cat | 0 | 0 | 1 | No Cat | No cat | – | – | – |
| Cc1cc(C)nc(Nc2ccccc2)n1 [2-Anilino-4,6-dimethylpyrimidine] | – | – | – | – | – | – | – | No Cat | Irritation INDEX ([1]; human, 30 min, 60 mg/cm2): 0; GHS Class ([2]; rabbit, in vivo): No cat; UN-GHS ([2]; rabbit, in vivo): No Cat; eye irritation category as stated in text and figure legends ([2]; rabbit, in vivo): No category |
| CC(C)(C)c1cc(Cc2cc(C(C)(C)C)c(O)c(C(C)(C)C)c2)cc(C(C)(C)C)c1O [4,4′-Methylene bis-(2,6-di-tert-butylphenol)] | – | – | – | – | No Cat | No cat | No category | No Cat | – |
| CCOc1ccc(Br)cc1 [4-Bromophenetol] | No Cat | 2 | 2 | 3 | No Cat | No cat | No category | – | – |
| CC(C)(C)CC(C)(C)c1cc(Cc2cc(C(C)(C)CC(C)(C)C)cc(-n3nc4ccccc4n3)c2O)c(O)c(-n2nc3ccccc3n2)c1 [Methylene bis-benzotriazolyl tetramethylbutyl phenol] | – | – | – | – | No Cat | – | – | No Cat | – |
| F[B-](F)(F)F.[K+] [Potassium tetrafluoroborate] | No Cat | 4 | 6 | 2 | No Cat | No cat | No category | – | – |
| CC(CN1c2ccccc2Sc2ccccc21)N(C)C (centres unmarked) [Promethazine hydrochloride] | – | – | – | – | Cat 1 | Cat 1 | category 1 | – | EIT prediction ([1]; human, 30 min, 60 mg/cm2): Cat 1 |
| O=C([O-])C(=O)[O-].[Na+].[Na+] [Sodium oxalate] | – | – | – | – | Cat 1 | Cat 1 | category 1 | Cat 1 | – |
| CCCCCCCCCCCCCCOC(=O)CCCCCCCCCCCCC [Tetradecyl tetradecanoate] | – | – | – | – | – | – | No category | No Cat | – |
| CC(C)(O)C(=O)O [alpha-Hydroxyisobutyric acid] | – | – | – | – | – | – | category 1 | – | EIT prediction ([1]; human, 30 min, 60 mg/cm2): Cat 1 |
